Data on 15 compounds can be found in US20240208992A1, “MACROCYCLES AS CFTR MODULATORS” (Idorsia Pharmaceuticals Ltd, priority 2021, published 2024).

In the test the target is human F508del-CFTR (Homo sapiens, UniProt P13569, DEL508-508). Briefly: F508del-CFTR cell surface expression (corrector activity), DiscoveRx ß-galactosidase complementation chemiluminescence assay in recombinant U2OS cell line.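 On all read-outs here: U2OS cells co-expressing ProLink-tagged F508del-CFTR and a membrane-anchored enzyme acceptor, where more surface CFTR restores β-galactosidase activity measured by chemiluminescence.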 The settings on record: U2OS cell line, 16h compound incubation; for EC50: EC50, F508del-CFTR cell surface expression, geomean values; for Emax: U2OS, in relation to the Emax of the corrector lumacaftor (=100%), arithmetic mean values.
Chain of human F508del-CFTR (P13569 with tags, fused parts or gaps DEL508-508): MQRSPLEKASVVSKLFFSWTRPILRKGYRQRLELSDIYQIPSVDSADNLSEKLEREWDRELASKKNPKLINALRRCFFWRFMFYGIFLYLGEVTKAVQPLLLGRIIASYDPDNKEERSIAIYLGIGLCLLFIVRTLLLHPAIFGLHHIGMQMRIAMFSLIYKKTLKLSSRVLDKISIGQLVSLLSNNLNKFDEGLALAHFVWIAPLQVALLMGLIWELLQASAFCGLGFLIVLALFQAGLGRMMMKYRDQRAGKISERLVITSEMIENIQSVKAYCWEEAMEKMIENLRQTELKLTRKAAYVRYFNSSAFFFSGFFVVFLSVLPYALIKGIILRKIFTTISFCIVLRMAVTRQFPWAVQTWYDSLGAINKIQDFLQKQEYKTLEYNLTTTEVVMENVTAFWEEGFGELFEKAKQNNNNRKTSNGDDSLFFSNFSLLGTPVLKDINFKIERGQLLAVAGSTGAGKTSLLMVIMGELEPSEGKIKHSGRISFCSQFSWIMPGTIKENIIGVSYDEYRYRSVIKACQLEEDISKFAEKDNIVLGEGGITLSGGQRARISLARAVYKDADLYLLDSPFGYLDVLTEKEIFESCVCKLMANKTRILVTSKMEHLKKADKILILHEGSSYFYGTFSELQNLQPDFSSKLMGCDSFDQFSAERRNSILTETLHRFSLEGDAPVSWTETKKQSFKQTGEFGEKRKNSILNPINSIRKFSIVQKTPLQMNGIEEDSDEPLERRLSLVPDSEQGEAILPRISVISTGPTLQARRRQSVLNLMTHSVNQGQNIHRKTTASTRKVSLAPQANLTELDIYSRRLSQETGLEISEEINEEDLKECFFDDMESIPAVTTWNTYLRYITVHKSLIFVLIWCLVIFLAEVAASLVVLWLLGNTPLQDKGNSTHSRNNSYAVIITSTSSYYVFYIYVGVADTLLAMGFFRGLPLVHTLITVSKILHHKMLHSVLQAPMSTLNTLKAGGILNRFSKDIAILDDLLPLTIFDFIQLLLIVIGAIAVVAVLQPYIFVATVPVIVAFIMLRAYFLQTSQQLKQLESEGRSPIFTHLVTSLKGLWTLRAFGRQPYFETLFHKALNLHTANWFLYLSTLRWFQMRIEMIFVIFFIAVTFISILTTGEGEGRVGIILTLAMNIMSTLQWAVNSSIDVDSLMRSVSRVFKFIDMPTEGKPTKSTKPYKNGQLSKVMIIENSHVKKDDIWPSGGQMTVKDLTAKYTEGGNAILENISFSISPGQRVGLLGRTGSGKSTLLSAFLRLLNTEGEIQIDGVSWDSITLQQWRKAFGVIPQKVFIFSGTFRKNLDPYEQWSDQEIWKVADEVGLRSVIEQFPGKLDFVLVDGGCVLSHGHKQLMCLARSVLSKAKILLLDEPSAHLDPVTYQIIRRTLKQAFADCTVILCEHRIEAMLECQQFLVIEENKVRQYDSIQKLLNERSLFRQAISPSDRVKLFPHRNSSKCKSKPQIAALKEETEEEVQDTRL

Turning to `CC(C)C[C@H]1C(=O)N(C)CC(=O)N[C@H](Cc2ccccc2)COc2cccc(Cl)c2C(=O)N[C@H](C(=O)NCCc2ccc3c(c2)OCO3)CC(=O)N1C` [Example 279, (3R,9S,13S)-N-(2-(benzo[d][1,3]dioxol-5-yl)ethyl)-3-benzyl-16-chloro-9-isobutyl-7,10-dimethyl-5,8,11,15-tetraoxo-2,3,4,5,6,7,8,9,10,11,12,13,14,15-tetradecahydrobenzo[p][1]oxa[4,7,10,14]tetraazacycloheptadecine-13-carboxamide], the EC50 (in general, the midpoint of the concentration-response curve) came out at 643 nM and the Emax – broadly, the size of the effect at its maximum, as opposed to the concentration needed – turned out to be 112%.
For `CCOc1cccc2c1C(=O)N[C@H](C(=O)NCCc1cccc(OC)c1)CC(=O)N(C)[C@@H](CC(C)C)C(=O)N1CCCC[C@@H]1C(=O)N[C@H](Cc1ccccc1)CO2` [Example 280, (7S,11S,20R,22aR)-20-benzyl-14-ethoxy-7-isobutyl-N-(3-methoxyphenethyl)-8-methyl-6,9,13,22-tetraoxo-1,3,4,6,7,8,9,10,11,12,13,19,20,21,22,22a-hexadecahydro-2H-benzo[p]pyrido[2,1-f][1]oxa[4,7,10,14]tetraazacycloheptadecine-11-carboxamide], in that order: 297 nM and 188%.
For the compound `COc1nccc2c1C(=O)N[C@H](C(=O)NCCc1ccc3c(c1)OCO3)CC(=O)N(C)[C@@H](CC(C)C)C(=O)N(CCC1CCCCC1)CC(=O)N[C@H](Cc1ccccc1)CO2` [Example 281, (3R,9S,13S)-N-(2-(benzo[d][1,3]dioxol-5-yl)ethyl)-3-benzyl-7-(2-cyclohexylethyl)-9-isobutyl-16-methoxy-10-methyl-5,8,11,15-tetraoxo-2,3,4,5,6,7,8,9,10,11,12,13,14,15-tetradecahydropyrido[3,4-p][1]oxa[4,7,10,14]tetraazacycloheptadecine-13-carboxamide], the EC50 was 110 nM and the Emax amounted to 361%.
Take `COc1cccc(CCNC(=O)[C@@H]2CC(=O)N(C)[C@@H](CC(C)C)C(=O)N(CCC3CCCCC3)CC(=O)N[C@H](Cc3ccccc3)COc3ccnc(OC)c3C(=O)N2)c1` [Example 282, (3R,9S,13S)-3-benzyl-7-(2-cyclohexylethyl)-9-isobutyl-16-methoxy-N-(3-methoxyphenethyl)-10-methyl-5,8,11,15-tetraoxo-2,3,4,5,6,7,8,9,10,11,12,13,14,15-tetradecahydropyrido[3,4-p][1]oxa[4,7,10,14]tetraazacycloheptadecine-13-carboxamide]: the EC50 is 114 nM and the Emax was 360%.
The like results for `CCOc1cccc2c1C(=O)N[C@H](C(=O)NCCc1ccc3c(c1)OCCO3)CC(=O)N(C)[C@@H](CC(C)C)C(=O)C1CCC[C@@H](N1)C(=O)N[C@H](Cc1ccccc1)CO2` [Example 283, (7S,11S,20R,22aR)-20-benzyl-N-(2-(2,3-dihydrobenzo[b][1,4]dioxin-6-yl)ethyl)-14-ethoxy-7-isobutyl-8-methyl-6,9,13,22-tetraoxo-1,3,4,6,7,8,9,10,11,12,13,19,20,21,22,22a-hexadecahydro-2H-benzo[p]pyrido[2,1-f][1]oxa[4,7,10,14]tetraazacycloheptadecine-11-carboxamide] were, in that order, 272 nM and 231%.
Consider `COc1cccc2c1C(=O)N[C@H](C(=O)NCCc1ccc3c(c1)OCO3)CC(=O)N(C)[C@@H](CC(C)C)C(=O)N(C[C@H]1CCCCO1)CC(=O)N[C@H](Cc1ccccc1)CO2` [Example 305, (3R,9S,13S)-N-(2-(benzo[d][1,3]dioxol-5-yl)ethyl)-3-benzyl-9-isobutyl-16-methoxy-10-methyl-5,8,11,15-tetraoxo-7-(((R)-tetrahydro-2H-pyran-2-yl)methyl)-2,3,4,5,6,7,8,9,10,11,12,13,14,15-tetradecahydrobenzo[p][1]oxa[4,7,10,14]tetraazacycloheptadecine-13-carboxamide], for which the EC50 was 533 nM and the Emax amounted to 123%.
The like results for `COc1cccc2c1C(=O)N[C@H](C(=O)NCCc1ccc3c(c1)OCO3)CC(=O)N(C)[C@@H](CC(C)C)C(=O)N(C[C@@H]1CCCCO1)CC(=O)N[C@H](Cc1ccccc1)CO2` [Example 306, (3R,9S,13S)-N-(2-(benzo[d][1,3]dioxol-5-yl)ethyl)-3-benzyl-9-isobutyl-16-methoxy-10-methyl-5,8,11,15-tetraoxo-7-(((S)-tetrahydro-2H-pyran-2-yl)methyl)-2,3,4,5,6,7,8,9,10,11,12,13,14,15-tetradecahydrobenzo[p][1]oxa[4,7,10,14]tetraazacycloheptadecine-13-carboxamide] were, in that order, 923 nM and 139%.
For `COc1cccc2c1C(=O)N[C@H](C(=O)NCCc1ccc3c(c1)OCO3)CC(=O)N(C)[C@@H](CC1CCCC1)C(=O)N(C[C@H]1CCCCO1)CC(=O)N[C@H](Cc1ccccc1)CO2` [Example 307, (3R,9S,13S)-N-(2-(benzo[d][1,3]dioxol-5-yl)ethyl)-3-benzyl-9-(cyclopentylmethyl)-16-methoxy-10-methyl-5,8,11,15-tetraoxo-7-(((R)-tetrahydro-2H-pyran-2-yl)methyl)-2,3,4,5,6,7,8,9,10,11,12,13,14,15-tetradecahydrobenzo[p][1]oxa[4,7,10,14]tetraazacycloheptadecine-13-carboxamide], in that order: 423 nM and 113%.
The like results for `COc1cccc2c1C(=O)N[C@H](C(=O)NCCc1ccc3c(c1)OCO3)CC(=O)N(C)[C@@H](CC1CCCC1)C(=O)N(C[C@@H]1CCCCO1)CC(=O)N[C@H](Cc1ccccc1)CO2` [Example 308, (3R,9S,13S)-N-(2-(benzo[d][1,3]dioxol-5-yl)ethyl)-3-benzyl-9-(cyclopentylmethyl)-16-methoxy-10-methyl-5,8,11,15-tetraoxo-7-(((S)-tetrahydro-2H-pyran-2-yl)methyl)-2,3,4,5,6,7,8,9,10,11,12,13,14,15-tetradecahydrobenzo[p][1]oxa[4,7,10,14]tetraazacycloheptadecine-13-carboxamide] were, in that order, 469 nM and 103%.
For `COc1cccc2c1C(=O)N[C@H](C(=O)NCCc1ccc3c(c1)OCO3)CC(=O)N(C)[C@@H](CC1CCCCC1)C(=O)N(C[C@@H]1CCCCO1)CC(=O)N[C@H](Cc1ccccc1)CO2` [Example 309, (3R,9S,13S)-N-(2-(benzo[d][1,3]dioxol-5-yl)ethyl)-3-benzyl-9-(cyclohexylmethyl)-16-methoxy-10-methyl-5,8,11,15-tetraoxo-7-(((S)-tetrahydro-2H-pyran-2-yl)methyl)-2,3,4,5,6,7,8,9,10,11,12,13,14,15-tetradecahydrobenzo[p][1]oxa[4,7,10,14]tetraazacycloheptadecine-13-carboxamide], the EC50 is 456 nM and the Emax came to 113%.
The like results for `COc1cccc(CCNC(=O)[C@@H]2CC(=O)N(C)[C@@H](CC(C)C)C(=O)N(C[C@H]3CCCCO3)CC(=O)N[C@H](Cc3ccccc3)COc3cccc(OC)c3C(=O)N2)c1` [Example 311, (3R,9S,13S)-3-benzyl-9-isobutyl-16-methoxy-N-(3-methoxyphenethyl)-10-methyl-5,8,11,15-tetraoxo-7-(((R)-tetrahydro-2H-pyran-2-yl)methyl)-2,3,4,5,6,7,8,9,10,11,12,13,14,15-tetradecahydrobenzo[p][1]oxa[4,7,10,14]tetraazacycloheptadecine-13-carboxamide] were, in that order, 454 nM and 127%.
For `COc1cccc(CCNC(=O)[C@@H]2CC(=O)N(C)[C@@H](CC(C)C)C(=O)N(C[C@@H]3CCCCO3)CC(=O)N[C@H](Cc3ccccc3)COc3cccc(OC)c3C(=O)N2)c1` [Example 312, (3R,9S,13S)-3-benzyl-9-isobutyl-16-methoxy-N-(3-methoxyphenethyl)-10-methyl-5,8,11,15-tetraoxo-7-(((S)-tetrahydro-2H-pyran-2-yl)methyl)-2,3,4,5,6,7,8,9,10,11,12,13,14,15-tetradecahydrobenzo[p][1]oxa[4,7,10,14]tetraazacycloheptadecine-13-carboxamide], the EC50 worked out at 727 nM and the Emax was determined as 111%.
For `COc1cccc(CCNC(=O)[C@@H]2CC(=O)N(C)[C@@H](CC3CCCC3)C(=O)N(C[C@H]3CCCCO3)CC(=O)N[C@H](Cc3ccccc3)COc3cccc(OC)c3C(=O)N2)c1` [Example 313, (3R,9S,13S)-3-benzyl-9-(cyclopentylmethyl)-16-methoxy-N-(3-methoxyphenethyl)-10-methyl-5,8,11,15-tetraoxo-7-(((R)-tetrahydro-2H-pyran-2-yl)methyl)-2,3,4,5,6,7,8,9,10,11,12,13,14,15-tetradecahydrobenzo[p][1]oxa[4,7,10,14]tetraazacycloheptadecine-13-carboxamide], in that order: 313 nM and 119%.
Turning to `COc1cccc(CCNC(=O)[C@@H]2CC(=O)N(C)[C@@H](CC3CCCCC3)C(=O)N(C[C@@H]3CCCCO3)CC(=O)N[C@H](Cc3ccccc3)COc3cccc(OC)c3C(=O)N2)c1` [Example 314, (3R,9S,13S)-3-benzyl-9-(cyclohexylmethyl)-16-methoxy-N-(3-methoxyphenethyl)-10-methyl-5,8,11,15-tetraoxo-7-(((S)-tetrahydro-2H-pyran-2-yl)methyl)-2,3,4,5,6,7,8,9,10,11,12,13,14,15-tetradecahydrobenzo[p][1]oxa[4,7,10,14]tetraazacycloheptadecine-13-carboxamide], the EC50 came to 469 nM and the Emax is 111%.
For `COc1cccc(CCNC(=O)[C@@H]2CC(=O)N(C)[C@@H](CC(C)C)C(=O)N(CCC3CCCCC3)CC(=O)N[C@H](Cc3ccccc3)COc3cnc4ccccc4c3C(=O)N2)c1` [Example 315, (3S,7S,13R)-13-benzyl-9-(2-cyclohexylethyl)-7-isobutyl-N-(3-methoxyphenethyl)-6-methyl-1,5,8,11-tetraoxo-1,2,3,4,5,6,7,8,9,10,11,12,13,14-tetradecahydro-[1]oxa[4,7,10,14]tetraazacycloheptadecino[17,16-c]quinoline-3-carboxamide], in that order: 115 nM and 349%.
